Results: publication PMC10610505, “Synthesis and Biological Evaluation of Some New 3-Aryl-2-thioxo-2,3-dihydroquinazolin-4(1H)-ones and 3-Aryl-2-(benzylthio)quinazolin-4(3H)-ones as Antioxidants; COX-2, LDHA, α-Glucosidase and α-Amylase Inhibitors; and Anti-Colon Carcinoma and Apoptosis-Inducing Agents” (Pharmaceuticals, 2023)

How the values were obtained:
Format in all cases: cell-based, human
[1] = tested on: Bcl-2 gene; assay: qRT-PCR expressional level of Bcl-2 gene; details: 10 µg/mL, 24 h, HCT-116, vs negative control
Protocol: Considering these facts, enhancing apoptosis has been extensively studied as a potential drug target in cancer therapy, therefore, in this study, we investigated the effects of the most cytotoxic compounds, 3a and 3f, (at 10 µg/mL, 24 h incubation) on the expressional levels of these apoptotic regulator genes (Bax and Bcl-2) using quantitative reverse transcription–polymerase chain reactions (qRT-PCR).
Briefly, in a 25 mL flask (1 × 10^6 cells/flask), the human colon cancer cell lines (HCT-116 and LoVo) were grown for 24 h. After replacing the culture media with a medium containing 1% FBS for 24 h, the cells were treated with 10 µg/mL of each tested compound in 2 mL of fresh medium containing 1% FBS, or 0.25% DMSO, which was used as the negative control. The cells were adherent cells and they were detached using trypsin after being washed with ice-cold phosphate-buffered saline (PBS).
Primers specific for the Bax, Bcl-2 and Caspase-3 genes were designed using the primer blast (https://www.ncbi.nlm.nih.gov/tools/primer-blast/ accessed on 9 January 2023) software. The primers were used in the RT-qPCR analysis to amplify fragments of 100–200 bp in length (Table 11).
The RNeasy Mini Kit (Qiagen, Hilden, Germany) was used to extract the total RNA. The RNA purity, quality and quantity were checked using a Nanodrop 8000 spectrophotometer (Thermo Fisher Scientific, USA). […]

[2] = tested on: HCT-116 carcinoma cells; assay: Annexin-V-FITC/PI flow cytometry, HCT-116; details: 50 µg/mL, 48 h; for Early apoptotic cells (Annexin-V positive, PI negative): lower right quadrant; for Late apoptotic cells (Annexin-V and PI positive): upper right quadrant
Protocol: (§1) In order to examine the effect of compounds 3a and 3f on the apoptosis of HCT-116 and LoVo carcinoma cells, the Annexin-V-FITC probe was used and flow cytometry analyses were performed (Figure 7).
(§2) The percentages of the early apoptotic cells (Annexin-V positive and propidium iodide, PI negative) and late apoptotic cells (both Annexin-V and PI positive) were then calculated. Annexin V-PI staining was also performed to distinguish apoptotic and necrotic cell deaths.
(§3) The distribution of early and late apoptotic cells after treatment with compounds 3a and 3f was carried out using an Annexin V-FITC Apoptosis Detection Kit (BioVisionResearch Products—USA). HCT-116 and LoVo carcinoma cells were seeded in 60 mm^2 culture dishes and treated with the vehicles DMSO, and compounds 3a and 3f (50 µg/mL) for 48 h. Cells were then harvested, washed twice with PBS and resuspended in an Annexin-V binding buffer (BioVisionResearch Products—USA). Finally, the cells were stained with Annexin V-FITC and propidium iodide (PI). The fluorescent intensity of the stained cancer cells was determined using an FITC signal detector (usually FL1) and PI staining with the phycoerythrin emission signal detector (through quadrant statistics for necrotic and apoptotic cell populations).

[3] = tested on: LoVo carcinoma cells; assay: Annexin-V-FITC/PI flow cytometry, LoVo; details: 50 µg/mL, 48 h; for Early apoptotic cells (Annexin-V positive, PI negative): lower right quadrant; for Late apoptotic cells (Annexin-V and PI positive): upper right quadrant
Protocol: as §1, §2, §3

[4] = tested on: HCT-116 carcinoma cells; assay: Cell cycle assay (PI flow cytometry), HCT-116; details: 50 µg/mL, 48 h
Protocol: In the current study, the cell cycle distribution of the treated HCT-116 and LoVo carcinoma cells with compounds 3a and 3f was assessed by labeling the cell’s DNA with PI stain in order to determine if the induction of apoptosis in carcinoma cells could be related to the cell cycle arrest (Figure 8A–F). The intensity of the PI stain is proportional to the cell’s DNA content (Figure 9). […] The ability of the tested compounds (3a and 3f) to block the cell cycle progression in LoVo and HCT-116 cells confirmed their anticancer potential against these colon carcinoma cell lines and could explain the mechanism of the observed cytotoxicity.
Changes in cell cycle distribution induced by compounds 3a and 3f were analyzed using a flow cytometric analysis according to Nicoletti et al. 1991 [108] using a Propidium Iodide Flow Cytometry Kit for Cell Cycle Analysis (Abcam-UK). HCT-116 and LoVo carcinoma cells (5 × 10^4 cells/mL) were treated with DMSO as a negative control, and compounds 3a and 3f (50 µg/mL), for 48 h. After the centrifugation of the treated cells at 1800 rpm for 5 min, the pellet was washed twice with PBS. Then, the cells were fixed by mixing […] of 90% cold ethanol, and stained with propidium iodide (PI) for 1 h at 37 °C. […] The stained cells were analyzed for their DNA content using a BD FACSC flow cytometer.

SMILES	Expressional level of anti-apoptotic gene Bcl-2 [1] [fold]	Early apoptotic cells (Annexin-V positive, PI negative) [2] [%]	Late apoptotic cells (Annexin-V and PI positive) [2] [%]	Early apoptotic cells (Annexin-V positive, PI negative) [3] [%]	Late apoptotic cells (Annexin-V and PI positive) [3] [%]	Cells in G1 phase (%DIP G1) [4] [%]
O=c1c2cc(Cl)ccc2[nH]c(=S)n1-c1cccc(C(F)(F)F)c1 [Compound 3a, 6-Chloro-2-thioxo-3-(3-trifluoromethyl-phenyl)-2,3-dihydro-1H-quinazolin-4-one]	0.635	14.6	6.56	18.29	11.01	53.51
O=c1c2cc(Cl)ccc2[nH]c(=S)n1-c1ccc([N+](=O)[O-])cc1 [Compound 3f, 6-Chloro-3-(4-nitro-phenyl)-2-thioxo-2,3-dihydro-1H-quinazolin-4-one]	0.345	9.59	5.32	12.97	4.66	57.81
